# Results taken from patent US7868037B2 (PTC Therapeutics, Inc., priority 2004, dated 2011).
# Read-outs that look alike come from different tables or passages of the source.
# Key:
# [1] = system: cap-dependent translation (pLuc); test: Western blot of Fluc reporter protein in pLuc cells; type: cell-based, human; conditions: 20 hours, data not shown
# HCV replicon = test: microbe, parasite or virus in culture; type: cell-based, hepatitis C virus; conditions: Hepatitis C virus
Structure (SMILES),cap-dependent protein production (pLuc) in Western blot [1],melting point,IC50 (HCV replicon; read-out: Replicon IC50 μM),IC50 (HCV replicon; read-out: Replicon IC50)
COc1ccc(C[C@H](N)C(=O)N[C@H]2[C@@H](O)[C@H](n3cnc4c(N(C)C)ncnc43)O[C@@H]2CO)cc1 [puromycin],inhibited,,,
CCOc1ccc2c(C#N)c(-c3ccc(NP(=O)(OCC)OCC)cc3)n(CC)c2c1 [Compound 772],,211 to 212 °C,< 0.5 µM,
"CCn1cc(-c2ccn[nH]2)c2ccc(OC)cc21 [Compound 59, 1-ethyl-6-methoxy-3-(2H-pyrazol-3-yl)-1H-indole]",,81 to 85 °C,> 2 µM,
"COC(=O)c1cccc(-c2noc(-c3[nH]c4cc(OC)ccc4c3C#N)n2)c1 [Compound 226, methyl 3-[5-(3-cyano-6-methoxy-1H-indol-2-yl)-[1,2,4]oxadiazol-3-yl]benzoate]",,294 to 295 °C,> 2 µM,
"CCOc1ccc2c(C(=O)N(C)C)c(-c3ccc(N4C(=O)CN(C)C4=O)cc3)n(CC)c2c1 [Compound 781, N,N-Dimethyl-6-ethoxy-1-ethyl-2-[4-(3-methyl-2,5-dioxo-imidazolidin-1-yl)-phenyl]-1H-indole-3-carboxamide]",,207 to 208 °C,< 0.5 µM,
"CCn1c(C#Cc2ccc(NC(=O)NCCCl)cc2)c(C#N)c2ccc(OC)cc21 [Compound 156, 1-(2-chloroethyl)-3-[4-(3-cyano-1-ethyl-6-methoxy-1H-indol-2-ylethynyl)-phenyl]urea]",,205 to 209 °C,0.5 to 2 µM,
"CCn1c(-c2ccc(OCCNC=O)cc2)c(C#N)c2ccc(OC)cc21 [Compound 280, N-{2-[4-(3-cyano-1-ethyl-6-methoxy-1H-indol-2-yl)-phenoxy]ethyl}formamide]",,89 to 95 °C,> 2 µM,
"CCn1cc(C#N)c2ccc(Oc3cnccn3)cc21 [Compound 13, 1-ethyl-6-(pyrazin-2-yloxy)-1H-indole-3-carbonitrile]",,161 to 164 °C,> 2 µM,
"CCOC(=O)Nc1ccc(-c2c(C#N)c3ccc(OC)cc3n2CC)cc1 [Compound 121, [4-(3-cyano-1-ethyl-6-methoxy-1H-indol-2-yl)-phenyl]-carbamic acid ethyl ester]",,167 to 169 °C,0.5 to 2 µM,
"CCn1c(I)c(C#N)c2cc([N+](=O)[O-])c(OC)cc21 [Compound 499, 1-ethyl-2-iodo-6-methoxy-5-nitro-1H-indole-3-carbonitrile]",,235 to 250 °C,,< 0.5 µM
"CCn1c(N2CCN(S(=O)(=O)C3CC3)CC2)c(C#N)c2ccc(C(F)(F)F)cc21 [Compound 842, 2-[4-(cyclopropylsulfonyl)piperazin-1-yl]-1-ethyl-6-(trifluoromethyl)-1H-indole-3-carbonitrile]",,170 to 171 °C,> 2 µM,
CCCn1c(-c2ccc(N3CCCS3(=O)=O)cc2)c(-c2cnco2)c2ccc(OC)cc21 [Compound 805],,217 to 222 °C,> 2 µM,
"CCn1c(-c2ccc(N3CCCS3(=O)=O)cc2)c(C#N)c2ccc(OC)cc21 [Compound 84, 2-[4-(1,1-dioxo-1λ^6-isothiazolidin-2-yl)phenyl]-1-ethyl-6-methoxy-1H-indole-3-carbonitrile]",,232 to 237 °C,< 0.5 µM,
"CCn1c(-c2ccc(OCCN3CCOCC3)cc2)c(C#N)c2ccc(OC)cc21 [Compound 261, 1-ethyl-6-methoxy-2-[4-(2-morpholin-4-yl-ethoxy)-phenyl]-1H-indole-3-carbonitrile]",,138 to 143 °C,0.5 to 2 µM,
"CCOc1ccc(-c2c(C#N)c3ccc(NS(=O)(=O)CC)cc3n2CC)cc1 [Compound 835, Ethanesulfonic acid [3-cyano-2-(4-ethoxyphenyl)-1-ethyl-1H-indol-6-yl]-amide]",,178 to 179 °C,0.5 to 2 µM,
"CCn1cc(C#N)c2cc(-c3ccsc3)ccc21 [Compound 141, 1-ethyl-5-thiophen-3-yl-1H-indole-3-carbonitrile]",,145 to 146 °C,> 2 µM,
"CCn1cc(-c2cnco2)c2ccc(C(=O)OC)cc21 [Compound 72, methyl 1-ethyl-3-oxazol-5-yl-1H-indole-6-carboxylate]",,144 to 149 °C,> 2 µM,
"CCc1nc(-c2cn(CC)c3cc(OC)ccc23)no1 [Compound 28, 1-ethyl-3-(5-ethyl-[1,2,4]oxadiazol-3-yl)-6-methoxy-1H-indole]",,68 to 70 °C,0.5 to 2 µM,
"CCCOC(=O)Nc1ccc2c(C#N)cn(-c3ccc(OC)cc3)c2c1 [Compound 97, [3-Cyano-1-(4-methoxyphenyl)-1H-indol-6-yl]-carbamic acid propyl ester]",,164 to 167 °C,> 2 µM,

Structure (SMILES),cap-dependent protein production (pLuc) in Western blot [1],melting point,IC50 (HCV replicon; read-out: Replicon IC50 μM),IC50 (HCV replicon; read-out: Replicon IC50)
"CCn1c(-c2ccc(NS(C)(=O)=O)cc2)c(C#N)c2ccc(O)cc21 [Compound 189, N-[4-(3-cyano-1-ethyl-6-hydroxy-1H-indol-2-yl)-phenyl]-methanesulfonamide]",,252 to 253 °C,> 2 µM,
"CCn1cc(C#N)c2ccc(OC)cc21 [Compound 5, 1-ethyl-6-methoxy-1H-indole-3-carbonitrile]",,64 to 66 °C,> 2 µM,
"CCn1c(-c2ccc3c(c2)N(C)C(=O)CO3)c(C#N)c2ccc(OC)cc21 [Compound 339, 1-ethyl-6-methoxy-2-(4-methyl-3-oxo-3,4,-dihydro-2H-benzo[1,4]oxazin-6-yl)-1H-indole-3-carbonitrile]",,215 to 219 °C,0.5 to 2 µM,
"CCn1c(C#Cc2ccc(NC(C)=O)cc2)c(C#N)c2ccc(OC)cc21 [Compound 138, N-[4-(3-cyano-1-ethyl-6-methoxy-1H-indol-2-ylethynyl)-phenyl]-acetamide]",,235 to 239 °C,0.5 to 2 µM,
"CCn1c(-c2ccc(OCCBr)cc2)c(C#N)c2ccc(OC)cc21 [Compound 253, 2-[4-(2-bromoethoxy)-phenyl]-1-ethyl-6-methoxy-1H-indole-3-carbonitrile]",,121 to 125 °C,0.5 to 2 µM,
CCn1c(-c2ccc(N(C)S(=O)(=O)CCN3CCOCC3)cc2)c(C#N)c2ccc(OC)cc21 [Compound 668],,171 to 174 °C,0.5 to 2 µM,
"CCNC(=O)Nc1cccc(C#Cc2c(C#N)c3ccc(OC)cc3n2CC)c1 [Compound 220, 1-[3-(3-cyano-1-ethyl-6-methoxy-1H-indol-2-ylethynyl)phenyl]-3-ethyl urea]",,219 to 223 °C,0.5 to 2 µM,
CCn1c(C#Cc2ccc(N(C)S(=O)(=O)CC)cc2)c(C#N)c2ccc(OC)cc21 [Compound 157],,149 to 153 °C,0.5 to 2 µM,
"CCn1c(-c2ccc(Nc3nc(-c4ccccc4)nc4ccccc34)cc2)c(C#N)c2ccc(OC)cc21 [Compound 458, 1-ethyl-6-methoxy-2-[4-(2-phenylquinazolin-4-ylamino)-phenyl]-1H-indole-3-carbonitrile]",,272 to 273 °C,,> 2 µM
"CCOc1ccc2c(C(=O)N(C)C)c(-c3ccc(N4C(=O)C(C)N(C)C4=O)cc3)n(CC)c2c1 (stereo not shown) [Compound 780, N,N-Dimethyl-2-[4-(3,4-dimethyl-2,5-dioxo-imidazolidin-1-yl)-phenyl]-6-ethoxy-1-ethyl-1H-indole-3-carboxamide]",,219 to 220 °C,0.5 to 2 µM,
"CCn1c(-c2ccc(OCCN)cc2)c(C#N)c2ccc(OC)cc21 [Compound 267, 2-[4-(2-aminoethoxy)phenyl]-1-ethyl-6-methoxy-1H-indole-3-carbonitrile]",,106 to 112 °C,> 2 µM,
"CCOc1ccc(-c2c(C#N)c3ccc(Br)cc3n2CC)cc1 [Compound 831, 6-Bromo-2-(4-ethoxyphenyl)-1-ethyl-1H-indole-3-carbonitrile]",,140 to 141 °C,> 2 µM,
"CCn1c(N2CCN(C(=O)OC(C)(C)C)CC2)c(C#N)c2ccc(C(F)(F)F)cc21 [Compound 785, 4-(3-cyano-1-ethyl-6-trifluoromethyl-1H-indol-2-yl)-piperazine-1-carboxylic acid tert-butyl ester]",,151 to 153 °C,0.5 to 2 µM,
"CCn1cc(C#N)c2ccc(C(=O)Nc3ccccc3)cc21 [Compound 15, 3-cyano-1-ethyl-1H-indole-6-carboxylic acid phenylamide]",,225 to 226 °C,> 2 µM,
"CCn1c(C#Cc2ccc(NS(C)(=O)=O)cc2)c(C#N)c2ccc(OC)cc21 [Compound 130, N-[4-(3-cyano-1-ethyl-6-methoxy-1H-indol-2-ylethynyl)-phenyl]-methanesulfonamide]",,227 to 233 °C,< 0.5 µM,
"CCn1c(-c2ccc(C(=O)N3CCOCC3)cc2)c(C#N)c2cc(OC)ccc21 [Compound 245, 1-ethyl-5-methoxy-2-[4-(morpholine-4-carbonyl)-phenyl]-1H-indole-3-carbonitrile]",,192 to 195 °C,> 2 µM,
"CCn1c(-c2cccc(NC(N)=S)c2)c(C#N)c2ccc(OC)cc21 [Compound 767, [3-(3-cyano-1-ethyl-6-methoxy-1H-indol-2-yl)-phenyl]-thiourea]",,204 to 205 °C,< 0.5 µM,
"CCc1nnc(-c2cn(CC)c3cc(OC)ccc23)o1 [Compound 54, 1-ethyl-6-methoxy-3-(5-ethyl-[1,3,4]oxadiazol-2-yl)-1H-indole]",,99 to 101 °C,> 2 µM,
